From patent US20240158448A1, “MULTIVALENT NANO-'SELF' PEPTIDES AND USES THEREOF” (THE TRUSTEES OF THE UNIVERSITY OF PENNSYLVANIA, priority 2021, published 2024)
Entries after “also recorded” stand apart in the source; their conditions may differ.

Assays:
human THP-1 macrophages [1] = test: In vitro phagocytosis assay: opsonized human RBCs engulfed by peptide-treated THP-1 macrophages; format: cell-based
Method: (§1) In vitro phagocytosis assay. Fresh human RBCs were washed twice with 50 mM EDTA (Thermo Fischer) in PBS (Gibco) then twice with 5% FBS in PBS. RBCs were opsonized with 20 μg/mL rabbit anti-human RBC antibody (Rockland) in 5% FBS for 1 hour at RT with shaking. For CD47 blocked RBCs, 5 μg/mL of mouse anti-human CD47 (B6H12; BD Biosciences) were added. Thereafter, RBCs were washed with PBS three times and stained with PKH26 dye (1:800 dilution in PBS; Sigma) for 1 hour at RT with shaking in the dark. RBCs were washed and resuspended in PBS.
(§2) THP-1 monocytes were PMA differentiated in RPMI for 48 hours. Macrophages were then washed with RPMI media three times. For SIRPα blocked THP-1 macrophages, 20 nM, 1 μM or 50 μM of the nano—Self peptides were incubated with the THP-1 macrophages for 1 hour at 37 ° C., 5% CO2 and 95% humidity. Those THP-Is were then washed with RPMI three times.
(§3) CO2 and 95% humidity. Macrophages were then washed with RPMI three times. Adherent and uninternalized RBCs were lysed with water for 30 seconds followed by immediate replacement with RPMI media. In order to distinguish remaining adherent RBCs from internalized RBCs, opsonized RBCs were stained with AlexaFluor 647 donkey anti-rabbit (binds to rabbit polyclonal opsonin on RBC; Invitrogen) IgG (1:1000) while unopsonized, CD47 blocked RBCs were stained with AlexaFluor 647 donkey anti-mouse (binds to mouse monoclonal anti-CD47 on RBCs; Invitrogen) IgG (1:1000) for 30 minutes. After washing, macrophages were fixed with 4% formaldehyde for 15 minutes at RT, washed with PBS, stained with 1 μg/mL Hoechst 33342, and then washed with PBS again. Fluorescence imaging was performed as described elsewhere herein and quantification was done using ImageJ. At least 200 cells were analyzed and experiments were repeated at least three times.

[2] = test system: mouse J774A.1 macrophages; test: In vitro phagocytosis assay: opsonized human RBCs engulfed by mouse J774A.1 macrophages; format: cell-based
Method: as §3, with “In vitro phagocytosis assay. […] For CD47 blocked RBCs, 5 μg/mL of mouse anti-human CD47 (B6H12; BD Biosciences) were added. Thereafter, RBCs were washed with PBS three times and stained with PKH26 dye (1:800 dilution in PBS; Sigma) for 1 hour at RT with shaking in the dark. RBCs were washed and resuspended in PBS. J774A.1 macrophages were plated for 24 hours in RPMI. For SIRPα blocked J774A.1 macrophages, the same peptide blocking procedure as described elsewhere herein was used with the addition of a positive control using 5 μg/mL rat anti-mouse SIRPα ([…]; BD Biosciences). […] CO2” for “CO2”

[3] = test system: mouse bone marrow derived macrophages (BMDMs); test: Phagocytosis of anti-TYRP1 opsonized B16F10 melanoma cells by mouse bone marrow derived macrophages; format: cell-based; settings: 50 μM peptide
Method: B16F10 cells: Bone marrow cells were isolated from femurs and tibias of healthy C57BL6/J mice (The Jackson Laboratory) and cultured in 10-cm petri dishes containing IMDM (Gibco) supplemented with 10% v/v FBS, 1% v/v penicillin/streptomycin, and 1:10,000 macrophage colony stimulating factor cytokine (M-CSF; Biolegend) for 7 days at 37° C., 5% CO2 and 95% humidity. All animal experiments were performed according to protocols approved by the University of Pennsylvania's IACUC (protocol #805977 and #804455). The resulting mouse bone marrow derived macrophages (BMDMs) were washed with PBS containing Ca2^+/Mg2^+ (Gibco) then detached with 0.25% trypsin-EDTA (Gibco) and re-plated in 6-well tissue culture plates using IMDM+M-CSF for 24 hours.
Mouse melanoma B16F10 cells were washed with PBS containing Ca2-/Mg2- and then trypsinized with 0.05% trypsin-EDTA. After washing twice with PBS, the cells were labeled with 1:10,000 CFDA—SE (Thermo Fisher) in PBS for 10 minutes. B16F10 cells were opsonized with 10 μg/mL anti-TYRP1 (TA99; Bio X Cell) in PBS for 2 hours at 4° C.with occasional inverting. For CD47 blocked B16F10 cells, 5 μg/mL of […] were added. During the incubation time, the BMDMs were washed with media then stained with 1:2,000 CellTracker Deep Red (Thermo Fisher) in PBS with Ca2^+/Mg2^+ for 10 min. After washing, 50 μM of the nano—Self peptides were incubated with the BMDMs for 1 hour at 37° C., 5% CO2 and 95% humidity. Finally, BMDMs were washed twice with PBS and then twice with serum-free IMDM.
Without removing the supernatant, the opsonized melanoma cells were added to the labeled BMDMs at a ratio of 2:1 for 2 hours at 37° C., 5% CO2 and 95% humidity. During the last 15 minutes of the assay, the cells were Hoechst stained. The wells were washed with serum free IMDM then fixed with 4% formaldehyde for 15 minutes at RT, and PBS washed. Fluorescence imaging was performed using an Olympus IX71 with a digital EMCCD camera (Cascade 512B) and a 40×/0.6 NA objective. Quantification was done with ImageJ (NIH). At least 200 cells were analyzed and two-tailed student's t-test was used to determine statistical significance.

human THP-1 macrophages [4] = test: Residual adhesion of opsonized RBCs to macrophages; format: cell-based; settings: 50 μM peptide
Source text: To measure the residual adhesion of RBCs and distinguish it from internalization by macrophages, the engulfment assay with human RBCs used a secondary antibody against the opsonizing IgG, which allowed us to clearly see RBCs in contact with macrophages that are not internalized (FIG. 29C). The cells are also firmly attached to the macrophages because the culture dishes were rinsed after fixation and secondary antibody labeling. […] All of the RBCs in these samples are equally opsonized with IgG that binds Fc-receptors (FcR's) on macrophages, and so differences in measured adhesion implicate differences in the CD47—SIRPα interaction.

[5] = test system: human macrophages (opsonized K562 cancer cells); test: Phagocytosis of opsonized K562 erythroleukemia cells by human macrophages; format: cell-based
Method: as §1, §2, §3
The anti-RBC successfully opsonized and triggered phagocytosis of K562 cells by macrophages (FIGS. 2A, 2F and 2E). […] Interaction of the nS peptides with K562 cells is likely minimal due to the relative lack of SIRPα expression. […] For both opsonized RBCs and opsonized K562s (FIGS. 2D, 2F), the hyperphagocytosis that is achieved with soluble F- and V-nS peptides matches the recently measured increases for disruption of both (i) the trans interactions between CD47 on a target and macrophage SIRPα and also, importantly, (ii) the cis interactions between CD47 and SIRPα on the same macrophage (FIG. 2G-left). Expression profiling of macrophages confirms these cells generally express CD47 at roughly similar levels to other cell types (FIG. 15). […] A preliminary conclusion is that nS-FF and the other substituted peptides, which were designed to bind SIRPα, inhibit both the cis and trans interactions between SIRPα and CD47 ([…]).

SIRPα = target: T1, SIRPα (Homo sapiens, UniProt P78324); test: CD47-Fc Inhibition Assay on THP-1 macrophages; format: binding; settings: 1 μM or 50 μM peptide, 2 μg/mL CD47-Fc, anti-Fc fluorescence
T1 construct: THP-1 monocytes were PMA differentiated in RPMI for 48 h; endogenous in cells; host or cells: PMA-differentiated THP-1 macrophages
Method: CD47-Fc Inhibition Assay. THP-1 monocytes were PMA differentiated in RPMI for 48 h. The macrophages were washed with RPMI media and then incubated with 1 μM or 50 μM of nano- Self peptides for 1 h at 37° C., 5% CO2, and 95% humidity. After washing, the macrophages were incubated with Human Trustain FcX Fc receptor blocking solution (Biolegend) for 10 min at RT and then incubated with 2 μg/mL CD47-Fc fusion protein (ACRO Biosystems) for 1 h at 37° C., 5% CO2, and 95% humidity. As a negative control, B6H12 was pre-mixed with CD47-Fc at 4° C. on a rotator for 1 h. The macrophages were then washed and incubated with 0.5 μg/mL goat anti-human IgG Fc DyLight 488 (Thermo Fischer) for 1 h at 37° C., 5% CO2, and 95% humidity. Finally, the macrophages were washed, fixed, Hoechst 33342 stained, and imaged as described above.
To determine whether the nS peptides bind to SIRPα, nS-FF and nS-F4 were used as soluble competitive inhibitors of saturable CD47-Fc fusion protein binding to macrophages (FIG. 20). Addition of multivalent nS peptides was followed by Fc-receptor blockade to minimize Fc-driven binding of construct. Afterwards, CD47-Fc was added and then finally anti-Fc fluorescence imaging was performed (FIG. 20, left).

THP-1 macrophages = test: Peptide inhibition assay (competition with FAM-labeled nS-F on THP-1 macrophages); format: binding, human; settings: pre-treatment with unlabeled peptide
Method: Peptide inhibition assay. THP-1 monocytes were PMA differentiated in RPMI for 48 hours. […] To measure background internalization of the FAM-labeled peptides, nS-X-FAM was used. To determine the efficacy of the bivalent peptides to inhibit SIRPα binding, nS-X was used. Excess peptides were washed off with PBS and cells were fixed with 4% formaldehyde for 15 minutes at RT, washed with PBS, stained with 1 μg/mL Hoechst 33342, and then washed with PBS again. Fluorescence imaging was performed as described elsewhere herein and quantification was done using ImageJ.

| Substance | effect on phagocytosis of opsonized RBCs (words) (human THP-1 macrophages [1]; saturating / 50 μM peptide) | effect on phagocytosis of opsonized WT and SIRPα KO B16 cells [3] | effect on phagocytosis of opsonized RBCs (words) (human THP-1 macrophages [1]; 20 nM peptide) | level of inhibition of CD47-Fc binding (SIRPα) | inhibition of monovalent nS-F-FAM binding to macrophages (THP-1 macrophages) | other results |
| --- | --- | --- | --- | --- | --- | --- |
| CVELTREGC (HELM PEPTIDE1{C.V.E.L.T.R.E.G.C.[am]}$PEPTIDE1,PEPTIDE1,1:R3-9:R3$$$V2.0; N-terminus assumed; SMILES CC(C)C[C@@H]1NC(=O)[C@H](CCC(=O)O)NC(=O)[C@H](C(C)C)NC(=O)[C@@H](N)CSSC[C@@H](C(N)=O)NC(=O)CNC(=O)[C@H](CCC(=O)O)NC(=O)[C@H](CCCNC(=N)N)NC(=O)[C@H]([C@@H](C)O)NC1=O) [nS-Cyc] | greater effect in perturbing the CD47-SIRPα interaction compared to linear nS-wt; also recorded: slightly higher levels than opsonized and anti-CD47 blocked RBCs; also recorded: Maximum levels of phagocytic macrophages | Maximum levels of phagocytic macrophages |  |  |  | fold more active than the linear counterpart ([2]; mouse macrophages, opsonized RBCs): roughly 20 fold; effect on phagocytosis of opsonized RBCs (words) ([2]; saturating / 50 μM peptide): slightly higher levels than opsonized and anti-CD47 blocked RBCs; residual adhesion of opsonized RBCs to macrophages (human THP-1 macrophages [4]): lowest amount of residual adhesion to macrophages |
| ((VTELFREG-PEG5)2-K)2-K [nS-F4] |  |  | more potent in enhancing phagocytosis | as inhibitory as anti-CD47 | more potent in inhibiting monovalent nS-F-fluor association with macrophages than bivalent nS-FF | increase of phagocytosis relative to opsonized and CD47 blocked K562 cells ([5]; saturating peptide): nearly doubled; also recorded: about two-fold; macrophages engulfing opsonized K562 cells at saturation ([5]; saturation): ~40% |
| (LETVEGTR-PEG5)2-K (LETVEGTRKRTGEVTEL; bivalent, PEG5 linkers, lysine core; nS-XX; (8)..(9) 5x PEG linker between residues; (9)..(10) 5x PEG linker between residues) [bivalent scrambled control] | unaffected; also recorded: do not affect baseline engulfment of opsonized RBCs; also recorded: do not have effects on phagocytosis |  |  | 0 |  | effect on phagocytosis of opsonized K562 cells [5]: unaffected; also recorded: only opsonization effect observed |
| CVTELFREGC (HELM PEPTIDE1{C.V.T.E.L.F.R.E.G.C.[am]}$PEPTIDE1,PEPTIDE1,1:R3-10:R3$$$V2.0; N-terminus assumed; SMILES CC(C)C[C@@H]1NC(=O)[C@H](CCC(=O)O)NC(=O)[C@H]([C@@H](C)O)NC(=O)[C@H](C(C)C)NC(=O)[C@@H](N)CSSC[C@@H](C(N)=O)NC(=O)CNC(=O)[C@H](CCC(=O)O)NC(=O)[C@H](CCCNC(=N)N)NC(=O)[C@H](Cc2ccccc2)NC1=O) [nS-F-Cyc, cyclic variant of nS-F] | Maximum levels of phagocytic macrophages | Maximum levels of phagocytic macrophages |  |  |  | increase of macrophage phagocytosis relative to nS-wt (human THP-1 macrophages [1]; saturating peptide): roughly 25% |
| (VTELVREG-PEG5)2-K (VTELVREGKGERVLETV; bivalent, PEG5 linkers, lysine core; nS-VV; (8)..(9) 5x PEG linker between residues; (9)..(10) 5x PEG linker between residues) [bivalent nS-V] | activity profiles in phagocytosis assays that are similar to the monovalent nS-F |  | successful in activating THP-1 to engulf opRBCs |  | further decreased |  |
